Residues, ends and D or L forms follow the SMILES beside them.
Columns and labels:
[1] = mouse, in vivo, 16.7 mg/kg
Protocol: FIG. 3. […] Mice were sacrificed 4 (A), 24 (B) and 48 (C) hours after the last administration.
To this end, preliminarily wild-type mice were treated once a week for 4 weeks at a dose of 16.7 mg/kg. Animals were sacrificed 4, 24, 48 hours from the last intranasal delivery.

[2] = test system: APPSwe/PS1DE9; details: mouse, in vivo, 50 mg/kg
Protocol: FIG. 4. Mouse brain distribution of Aβ1-6A2V (D) peptide 2 hours after the last intranasal administration: A) Control and B) Treated Mice. FIG. 5. Effect of Aβ1-6A2V(D) on Aβ oligomer formation in the brain: biochemical assessment. APPSwe/PS1DE9 were treated with Aβ1-6A2V(D) at 50 mg/kg for five months. Control group was treated intranasally with PBS. A: Levels of Aβ aggregates in soluble and insoluble brain fractions after 2.5 months of treatment. B: Levels of Aβ aggregates in soluble and insoluble brain fractions after five months of treatment. * p<0.01; *** p<0.001. FIG. 6. Effect of Aβ1-6A2V(D) on Aβ deposits in mouse brain: neuropathological assessment. A: APPSwe/PS1DE9 were treated with Aβ1-6A2V(D) daily for five months at 50 mg/kg. Control group (CTRL) was treated intranasally with PBS. Amyloid burden measured by plaque count. ** p<0.01; *** p<0,001. B: Immunohistochemistry with the 4G8 anti-Aβ antibody. FIG. 7. Effect of Aβ1-6A2V(D) on synaptopathy. Subcellular fractionation of hippocampal homogenates from mice treated with Aβ1-6A2V(D) (right columns) or PBS (left columns). Western blot analysis with antibodies against synaptic receptors (NMDA-2A, GluN2B, GluA1 and GluA2) and scaffold protein (PSD95). The treatment with Aβ1-6A2V(D) preserved synaptic integrity. […]

CC(C)[C@@H](NC(=O)[C@H](N)CC(=O)O)C(=O)N[C@H](CCC(=O)O)C(=O)N[C@H](Cc1ccccc1)C(=O)N[C@H](CCCNC(=N)N)C(=O)N[C@H](Cc1c[nH]cn1)C(=O)O [Aβ1-6A2V(D)] (HELM PEPTIDE1{[dD].[dV].[dE].[dF].[dR].[dH]}$$$$V2.0; N-terminus and C-terminus assumed)
Diffusion of the peptide in brain tissue [1]: consistent diffusion of the peptide in brain tissue | Presence of the peptide in cerebral cortex 48 hours after last treatment [1]: can be still observed in the cerebral cortex | Diffusion of the peptide in brain tissue [2]: consistent diffusion of the peptide in brain tissue
